Several values for one entry are separate records, joined by “and”; a condition that tells them apart may be missing. Identical values can stand only once.
Details: Liquid

CCCCCCCCCCCCCCCCCCCCCCC [tricosane]
Details	vapor or sublimation pressure [kPa]
412.18 K	0.0129
422.26 K	0.0248
422.29 K	0.0247
432.34 K	0.0461
442.33 K	0.0839
452.22 K	0.143
461.99 K	0.242

CCCCCCCCCCCCCCCCCCCCC [heneicosane]
Details	vapor or sublimation pressure [kPa]
351.54 K	0.000396
361.52 K	0.000971
371.42 K	0.0022
381.65 K	0.00498
391.86 K	0.0106
402.05 K	0.0213
422.19 K	0.0751
432.27 K	0.133
442.3 K	0.228
452.22 K	0.378
461.96 K	0.611

CCCCCCCCCCCCCCCCCCCCCCCCCCCCC [nonacosane]
Details	vapor or sublimation pressure
422.1 K	0.00097 kPa and 0.000971 kPa
432.12 K	0.00206 kPa
442.17 K	0.00421 kPa
442.19 K	0.00417 kPa
452.2 K	0.00824 kPa
452.23 K	0.00819 kPa

CCCCCCCCCCCCCCCCCCCCCCCCCCC [heptacosane]
Details	vapor or sublimation pressure
401.68 K	0.000592 kPa
401.69 K	0.00059 kPa
411.78 K	0.00129 kPa
411.81 K	0.0013 kPa
421.93 K	0.00269 kPa
421.95 K	0.00272 kPa
432.03 K	0.00556 kPa
442.18 K	0.011 kPa
452.27 K	0.0214 kPa
462.27 K	0.0405 kPa and 0.0401 kPa

CCCCCCCCCCCCCCCCCCCCCCCCCCCCCC [triacontane]
Details	vapor or sublimation pressure [kPa]
432.36 K	0.00115
432.37 K	0.00113
442.48 K	0.00233
452.32 K	0.00457
452.34 K	0.00451

CCCCCCCCCCCCCCCCCCCCCCCCC [pentacosane]
Details	vapor or sublimation pressure
381.69 K	0.000331 kPa
391.91 K	0.000783 kPa
402.03 K	0.00178 kPa
411.75 K	0.00383 kPa
411.78 K	0.00383 kPa
422.02 K	0.00802 kPa
432.21 K	0.0158 kPa
442.33 K	0.0296 kPa
442.34 K	0.0299 kPa
452.24 K	0.0541 kPa
452.25 K	0.0534 kPa
461.95 K	0.0926 kPa
461.98 K	0.0923 kPa and 0.0938 kPa

— the NIST ThermoML archive (doi:10.1021/je050182i)
